Data on 33 compounds can be found in ChEMBL document CHEMBL5620380, “Identification of 5-[5-cyano-1-(pyridin-2-ylmethyl)-1H-indole-3-carboxamido] thiazole-4-carboxylic acid as a promising dual inhibitor of urate transporter 1 and xanthine oxidase” (Eur J Med Chem, 2023).

pIC50: −log10 of the molar value. The source made the active and inactive calls. The calls are words filed in the database; no cut-off is given here.

For series [1], the target named is T1, Solute carrier family 22 member 12 (Homo sapiens, UniProt Q96S37).
T1 sequence (Q96S37 whole entry): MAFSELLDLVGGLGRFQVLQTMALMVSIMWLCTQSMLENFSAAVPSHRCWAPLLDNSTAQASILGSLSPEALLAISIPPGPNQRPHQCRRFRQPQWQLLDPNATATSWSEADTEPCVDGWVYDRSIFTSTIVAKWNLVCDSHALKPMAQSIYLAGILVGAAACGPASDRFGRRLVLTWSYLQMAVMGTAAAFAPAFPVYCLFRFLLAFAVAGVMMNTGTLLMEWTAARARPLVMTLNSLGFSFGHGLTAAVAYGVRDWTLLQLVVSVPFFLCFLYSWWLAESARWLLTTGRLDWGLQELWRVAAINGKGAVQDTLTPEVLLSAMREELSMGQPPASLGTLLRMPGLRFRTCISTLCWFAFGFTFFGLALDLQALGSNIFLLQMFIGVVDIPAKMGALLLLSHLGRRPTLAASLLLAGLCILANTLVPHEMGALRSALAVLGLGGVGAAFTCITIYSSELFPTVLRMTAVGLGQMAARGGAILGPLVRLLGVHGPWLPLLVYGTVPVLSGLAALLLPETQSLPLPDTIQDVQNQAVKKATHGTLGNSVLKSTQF
The series is described as follows: Inhibition of URAT1 (unknown origin)-mediated 14C uric acid uptake expressed in HEK293 cells using 14C uric acid as substrate at 10 uM by liquid scintillation counting analysis. It is filed as cell-based.

The test system of series [2] is Rattus norvegicus. The series is described as follows: Hypouricemic activity against potassium oxonate-induced hyperuricemia Sprague-Dawley rat model assessed as decrease in serum uric acid level at 10 mg/kg, ig administered 1 hr post-potassium oxonate challenge and measured after 1 to 5 hrs. The series is classed as functional, organism-based. The conditions noted are these: time 1-5 hrs.

Series [3] addresses T2, Xanthine dehydrogenase/oxidase (Bos taurus, UniProt P80457). Put plainly: Inhibition of bovine XO assessed as inhibition of uric acid production using xanthine as substrate preincubated for 25 mins followed by substrate addition and measured for first 2 mins by spectrophotometric analysis.
Series [4] concerns the target T2, Xanthine dehydrogenase/oxidase. Put plainly: Potency index, ratio of allopurinol IC50 to test compound IC50 for inhibition of bovine XO. The conditions noted are these: cattle.
The target is the same in series [5]. The series is described as follows: Mixed inhibition of bovine XO assessed as increase in Km with decrease in Vmax using xanthine as substrate by Lineweaver-Burk plot analysis. The conditions noted are these: cattle.
Series [6] relates to Rattus norvegicus. Put plainly: Hypouricemic activity against potassium oxonate-induced hyperuricemia Sprague-Dawley rat model assessed as decrease in serum uric acid level at 10 mg/kg, ig administered 1 hr post-potassium oxonate challenge and measured after 3 hrs. The series is classed as functional. The conditions noted are these: po.
Series [7] relates to Rattus norvegicus. The series is described as follows: Hypouricemic activity against potassium oxonate-induced hyperuricemia Sprague-Dawley rat model assessed as decrease in AUC of serum uric acid level at 10 mg/kg, ig administered 1 hr post-potassium oxonate challenge and measured after 1 to 5 hrs. The conditions noted are these: po, time 1-5 hrs. It is filed as functional.

For series [8], the target named is T2, Xanthine dehydrogenase/oxidase. Put plainly: Inhibition of bovine XO assessed as inhibition of uric acid production using xanthine as substrate at 10 uM preincubated for 25 mins followed by substrate addition and measured for first 2 mins by spectrophotometric analysis. The conditions noted are these: cattle, time 27 min.

T2 sequence (P80457 whole entry): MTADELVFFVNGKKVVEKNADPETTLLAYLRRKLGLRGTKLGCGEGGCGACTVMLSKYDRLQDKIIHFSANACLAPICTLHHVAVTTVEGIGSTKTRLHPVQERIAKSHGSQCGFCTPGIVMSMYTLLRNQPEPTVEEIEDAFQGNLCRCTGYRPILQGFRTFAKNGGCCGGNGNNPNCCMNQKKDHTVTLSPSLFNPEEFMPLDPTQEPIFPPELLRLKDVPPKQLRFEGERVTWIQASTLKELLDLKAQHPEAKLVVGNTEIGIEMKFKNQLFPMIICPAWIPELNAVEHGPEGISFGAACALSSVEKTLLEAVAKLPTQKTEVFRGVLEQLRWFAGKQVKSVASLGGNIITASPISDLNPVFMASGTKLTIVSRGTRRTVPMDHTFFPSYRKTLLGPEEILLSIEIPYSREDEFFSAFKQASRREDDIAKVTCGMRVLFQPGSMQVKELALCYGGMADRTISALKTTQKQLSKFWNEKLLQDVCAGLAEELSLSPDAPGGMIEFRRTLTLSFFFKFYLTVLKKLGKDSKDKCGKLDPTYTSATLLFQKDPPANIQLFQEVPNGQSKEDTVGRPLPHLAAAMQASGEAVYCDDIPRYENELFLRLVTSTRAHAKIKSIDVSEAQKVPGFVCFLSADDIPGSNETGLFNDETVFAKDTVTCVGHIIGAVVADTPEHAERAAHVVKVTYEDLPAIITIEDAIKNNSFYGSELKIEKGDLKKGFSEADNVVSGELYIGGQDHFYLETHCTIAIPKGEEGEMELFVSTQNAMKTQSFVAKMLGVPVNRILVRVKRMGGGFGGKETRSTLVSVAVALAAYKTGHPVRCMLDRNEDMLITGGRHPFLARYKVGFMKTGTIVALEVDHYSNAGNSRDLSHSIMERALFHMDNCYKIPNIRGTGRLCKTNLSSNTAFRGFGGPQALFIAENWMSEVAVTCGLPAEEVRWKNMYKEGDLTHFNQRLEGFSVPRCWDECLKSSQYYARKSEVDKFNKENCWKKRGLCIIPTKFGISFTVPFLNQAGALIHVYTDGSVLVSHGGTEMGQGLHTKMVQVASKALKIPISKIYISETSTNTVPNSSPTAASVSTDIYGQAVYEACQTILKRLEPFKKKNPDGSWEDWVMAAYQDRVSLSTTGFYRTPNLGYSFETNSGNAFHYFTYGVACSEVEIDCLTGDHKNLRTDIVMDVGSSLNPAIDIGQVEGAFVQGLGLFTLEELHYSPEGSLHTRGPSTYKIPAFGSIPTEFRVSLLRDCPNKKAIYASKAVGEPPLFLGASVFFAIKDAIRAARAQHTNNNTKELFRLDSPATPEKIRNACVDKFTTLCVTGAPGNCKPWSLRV

On to `O=C(O)c1ccccc1NC(=O)c1cn(Cc2ccccc2F)c2ccccc12`, for which the inhibition at 10 µM in series [1] turned out to be 40.7%.
For the compound `Oc1ncnc2[nH]ncc12`, in series [2], the result was Active.
Turning to `N#Cc1ccc2c(c1)c(C(=O)Nc1scnc1C(=O)O)cn2Cc1ccccn1`, the inhibition at 10 µM in series [1] was found to be 48%. In addition, in series [3], the pIC50 was 6.00. In series [4], the “Ratio IC50” value came out at 9.1. Also, in series [5], the “inhibition (INH)” value is “Active”. Also, the inhibition in vivo at 10 mg/kg in series [6] was 22.3%; in series [7], 25.8%.
`O=C(O)c1ccccc1NC(=O)c1cn(Cc2cccs2)c2ccccc12`: in series [1], the inhibition at 10 µM is 56.7%.
Same read-out and setting: to `O=C(O)c1ccccc1NC(=O)c1cn(Cc2ccncc2)c2ccccc12` belongs 68.4%; to `O=C(O)c1cccc(NC(=O)c2c[nH]c3ccccc23)c1`, 25.8%; to `O=C(O)c1ccccc1NC(=O)c1cn(Cc2ccccn2)c2ccccc12`, 81.4%.
The same measure, in the same setting: to `O=C(O)c1ccccc1NC(=O)c1cn(Cc2ccccn2)c2ccc(F)cc12` belongs 51.1%; to `O=C(O)c1ccccc1NC(=O)c1cn(Cc2ccc(Br)cc2)c2ccccc12`, 73.6%.
`O=C(O)c1ccccc1NC(=O)c1cn(Cc2cscn2)c2ccccc12`: the inhibition at 10 µM in series [1] is 64.4%.
As for `O=C(O)c1ccccc1NC(=O)c1cn(Cc2ccc(Cl)cc2)c2ccccc12`, in series [1], the inhibition at 10 µM stood at 69.4%.
`O=C(O)c1ccc(NC(=O)c2c[nH]c3ccccc23)cc1`: in series [1], the inhibition at 10 µM was 0.1%.
The same measure, in the same setting: to `O=C(O)c1ccccc1NC(=O)c1c[nH]c2ccccc12` belongs 33.2%.
With `COc1ccc(/C=C/C(=O)Nc2ccccc2C(=O)O)cc1OC`, the inhibition at 10 µM in series [1] was 44.9%. Also, the outcome in series [2] was Active.
For `COc1ccc(Cn2cc(C(=O)Nc3ccccc3C(=O)O)c3ccccc32)cc1`, the inhibition at 10 µM in series [1] came to 53.9%.
Same read-out and setting: to `O=C(O)c1ccccc1NC(=O)c1cn(Cc2cccnn2)c2ccccc12` belongs 10.4%; to `O=C(O)c1ccccc1NC(=O)c1cn(Cc2ncccn2)c2ccccc12`, 49.9%.
Still for that read-out and setting: to `CC(C)(C)c1ccc(Cn2cc(C(=O)Nc3ccccc3C(=O)O)c3ccccc32)cc1` belongs -4.8%; to `Cc1ccc(Cn2cc(C(=O)Nc3ccccc3C(=O)O)c3ccccc32)cc1`, 61%.
Turning to `N#Cc1ccc2c(c1)c(C(=O)Nc1ncc(C(=O)O)s1)cn2Cc1ccccn1`, the inhibition at 10 µM in series [1] is 15.9%. In addition, the pIC50 in series [3] was 5.67.
Regarding `O=C(O)c1ccccc1NC(=O)c1cn(Cc2cnccn2)c2ccccc12`, the inhibition at 10 µM in series [1] worked out at 52.7%.
The same measure, in the same setting: to `O=C(O)CSc1nnc(Br)n1-c1ccc(C2CC2)c2ccccc12` belongs 47%; to `O=C(O)c1ccccc1NC(=O)c1cn(Cc2cccc(F)c2)c2ccccc12`, 48%.
Take `N#Cc1ccc2c(c1)c(C(=O)Nc1cc[nH]c1C(=O)O)cn2Cc1ccccn1`: in series [1], the inhibition at 10 µM came to 51%. Also, in series [3], the negative logarithm of the IC50 (pIC50) is 5.57.
Turning to `O=C(O)c1ccccc1NC(=O)c1cn(Cc2cccnc2)c2ccccc12`, in series [1], the inhibition at 10 µM amounted to 43.1%.
Still for that read-out and setting: to `Cc1ccc2c(c1)c(C(=O)Nc1ccccc1C(=O)O)cn2Cc1ccccn1` belongs 46.8%; to `O=C(O)c1ccccc1NC(=O)c1cn(Cc2ccccc2)c2ccccc12`, 41.3%.
Consider `Cc1ccc2c(C(=O)Nc3ccccc3C(=O)O)cn(Cc3ccccn3)c2c1`, for which the inhibition at 10 µM in series [1] was found to be 49.1%.
Consider `N#Cc1ccc2c(c1)c(C(=O)Nc1ccccc1C(=O)O)cn2Cc1ccccn1`, for which the inhibition at 10 µM in series [1] stood at 60.7%; in series [8], 33.5%.
As for `O=C(O)c1ccccc1NC(=O)c1cn(Cc2ccc(F)cc2)c2ccccc12`, the inhibition at 10 µM in series [1] was 73.4%.
On the same count and under the same terms, to `O=C(O)c1ccccc1NC(=O)c1cn(C(=O)c2ccccc2)c2ccccc12` belongs 10.9%; to `O=C(O)c1ccccc1NC(=O)c1cn(Cc2ccccn2)c2cc(F)ccc12`, 51.6%; to `N#Cc1ccc2c(C(=O)Nc3ccccc3C(=O)O)cn(Cc3ccccn3)c2c1`, 65.7%.
